19 substances from patent US7238801B2, “Phthalocyanine compound, method for production thereof, and near infrared absorbing dye and near infrared absorbing filter using same” (Nippon Shokubai Co., Ltd., priority 2002, dated 2007) can be followed below.

Like-named read-outs stand apart in the source and are kept apart here.

Holding throughout (type): physicochemical
A short description of data set [1]: Maximum absorption wavelength by spectrophotometer. As to the method:
Now, working examples and comparative examples will be described below. The maximum absorption wavelengths (λmax) reported in this invention are magnitudes determined in acetone.
The phthalocyanine compound obtained in the present example, i.e. VOPc(PhS)8{2,6-(CH3)2PhO}4{(C2H5)2NCH2CH2NH}4, was tested for maximum absorption wavelengths in acetone and in chloroform by the use of a spectrophotometer (made by Shimadzu Seisakusho Ltd. and sold under the trademark designation of “UVl-3100”).

Data set [2] is described as follows: Solubility in toluene and methyl ethyl ketone at room temperature. To be noted: 10 ml, room temperature (25° C.), visual; for Solubility MEX: methyl ethyl ketone. The text has this:
The solubility shown in Table 23 represents the data obtained by rating the relevant values on the […] scale, wherein ⊚ stands for a value of not less than 5% by weight, ◯ for a value of not less than 1% by weight and less than 5% by weight, Δ for a value of not less than 0.1% by weight and less than 1% by weight, and X for a value of less than 0.1% by weight.

A short description of data set [3]: Maximum absorption wavelength by spectrophotometer. The source holds these as a separate data set.

As for “VOPc(PhS)8{2,6-(CH3)2PhO}4{CH3(CH2)3CH(C2H5)CH2NH}4 [Example 16]”, in data set [1], the “Max. absorption wavelength (in acetone)” value amounted to 939 nm and the “Max. absorption wavelength (in chloroform)” value is reported as 958 nm. In data set [2], the “Solubility MEX” value is “⊚ (a value of not less than 5% by weight)” and the Solubility toluene result is “⊚ (a value of not less than 5% by weight)”.
As for “VOPc(2,5-Cl2PhO)8{2,6-Br2-4-CH3PhO}4 {Ph(CH)3CHNH}3]F [reference compound]”, the “Max. absorption wavelength (in acetone)” value in data set [1] is given as 840 nm.
“VOPc(PhS)8{2,6-(CH3)2PhO}4{CH3(CH2)7NH}4 [Example 18]”: in data set [1], the “Max. absorption wavelength (in acetone)” value was 931 nm and the “Max. absorption wavelength (in chloroform)” value was 950 nm. Also, in data set [2], the “Solubility MEX” value was “⊚ (a value of not less than 5% by weight)” and the Solubility toluene entry is reported as “⊚ (a value of not less than 5% by weight)”.
As for “VOPc(PhS)8{2,6-(CH3)2PhO}4{CH3(CH2)3O(CH2)3NH}4 [Example 10]”, in data set [1], the “Max. absorption wavelength (in acetone)” value was 930 nm and the “Max. absorption wavelength (in chloroform)” value is reported as 950 nm. Further, in data set [2], the “Solubility MEX” value is reported as “⊚ (a value of not less than 5% by weight)” and the Solubility toluene entry is “⊚ (a value of not less than 5% by weight)”.
Turning to “VOPc{2-(CH3O)PhS}8{2,6-(CH3)2PhO}4{(C2H5)2NCH2CH2NH}4 [Example 2]”, in data set [1], the “Max. absorption wavelength (in acetone)” value was 950 nm and the “Max. absorption wavelength (in chloroform)” value is 970 nm. For the same substance, in data set [2], the “Solubility MEX” value is recorded as “⊚ (a value of not less than 5% by weight)” and the Solubility toluene entry is recorded as “⊚ (a value of not less than 5% by weight)”.
Consider “VOPc(PhS)8{2,6-(CH3)2PhO}4{CH3(CH2)17NH}4 [Example 19]”, for which, in data set [1], the “Max. absorption wavelength (in acetone)” value amounted to 935 nm and the “Max. absorption wavelength (in chloroform)” value amounted to 954 nm. For the same substance, in data set [2], the “Solubility MEX” value is reported as “⊚ (a value of not less than 5% by weight)” and the Solubility toluene entry is reported as “⊚ (a value of not less than 5% by weight)”.
For the substance “VOPc(2,5-Cl2PhO)8{2,6-(CH3)2PhO}4{Ph(CH)3CHNH}3]F [reference compound]”, the “Max. absorption wavelength (in acetone)” value in data set [1] stood at 834 nm.
On to “VOPc(PhS)8{2,6-(CH3)2PhO}4{CH3(CH2)3CH(C2H5)CH2O(CH2)3NH}4 [Example 11]”, for which, in data set [1], the “Max. absorption wavelength (in acetone)” value was 933 nm and the “Max. absorption wavelength (in chloroform)” value is listed as 952 nm. In data set [2], the “Solubility MEX” value was “⊚ (a value of not less than 5% by weight)” and the Solubility toluene result is given as “⊚ (a value of not less than 5% by weight)”.
With “VOPc(PhS)8{2,6-(CH3)2PhO}4{(CH3CH2O(CH2)3NH}4 [Example 8]”, in data set [1], the “Max. absorption wavelength (in acetone)” value is 928 nm and the “Max. absorption wavelength (in chloroform)” value came out at 947 nm. Besides, in data set [2], the “Solubility MEX” value was “⊚ (a value of not less than 5% by weight)” and the Solubility toluene entry was “⊚ (a value of not less than 5% by weight)”.
For “VOPc(2,5-Cl2PhO)8{2,6-(CH3)2PhO}4(PhCH2NH)4 [reference compound]”, the “Max. absorption wavelength (in acetone)” value in data set [1] was 870 nm.
Take “VOPc(PhS}8{2,6-(CH3)2PhO}4[{CH3(CH2)2CH}2NCH2CH2NH]4 [Example 4]”: in data set [1], the “Max. absorption wavelength (in acetone)” value stood at 944 nm and the “Max. absorption wavelength (in chloroform)” value turned out to be 963 nm. In data set [2], the “Solubility MEX” value is “⊚ (a value of not less than 5% by weight)” and the Solubility toluene result is listed as “⊚ (a value of not less than 5% by weight)”.
With “VOPc(PhS)8{2,6-(CH3)2PhO}4[{(CH3)2CH}2NCH2CH2NH]4 [Example 3]”, in data set [1], the “Max. absorption wavelength (in acetone)” value worked out at 952 nm and the “Max. absorption wavelength (in chloroform)” value is given as 970 nm. Further, in data set [2], the “Solubility MEX” value is “⊚ (a value of not less than 5% by weight)” and the Solubility toluene result was “⊚ (a value of not less than 5% by weight)”.
Consider “VOPc(4-CNPhO)8{2,6-(CH3)2PhO}4{Ph(CH)3CHNH}3F [reference compound]”, for which, in data set [1], the “Max. absorption wavelength (in acetone)” value is listed as 834 nm.
Regarding “VOPc(PhS)8{2,6-(CH3)2PhO}4(PhCH2NH)4 [reference compound]”, in data set [1], the “Max. absorption wavelength (in acetone)” value was 912 nm.
As for “VOPc(PhS)8{2,6-(CH3)2PhO}4{(C2H5)2NCH2CH2NH}4 [Example 1]”, in data set [1], the “Max. absorption wavelength (in acetone)” value is listed as 941 nm and the “Max. absorption wavelength (in chloroform)” value is listed as 960 nm. Further, in data set [2], the “Solubility MEX” value is “⊚ (a value of not less than 5% by weight)” and the Solubility toluene entry is “⊚ (a value of not less than 5% by weight)”.
“VOPc(PhS)8{2,6-(CH3)2PhO}4{(CH3)2CHO(CH2)3NH}4 [Example 9]”: in data set [1], the “Max. absorption wavelength (in acetone)” value came out at 930 nm and the “Max. absorption wavelength (in chloroform)” value is on record as 949 nm. In data set [2], the “Solubility MEX” value is listed as “⊚ (a value of not less than 5% by weight)” and the Solubility toluene entry is “⊚ (a value of not less than 5% by weight)”.
As to “VOPc{4-(CH3O)PhS}8{2,6-(CH3)2PhO}4{CH3(CH2)3CH(C2H5)CH2NH}4 [Example 17]”, in data set [1], the “Max. absorption wavelength (in acetone)” value amounted to 960 nm and the “Max. absorption wavelength (in chloroform)” value amounted to 980 nm. For the same substance, in data set [2], the “Solubility MEX” value is reported as “⊚ (a value of not less than 5% by weight)” and the Solubility toluene result is “⊚ (a value of not less than 5% by weight)”. Moreover, the “Max. absorption wavelength (in acetone)” value in data set [3] is 962 nm.
As to “VOPc(PhS)8{2,6-(CH3)2PhO}4{CH3(CH2)5NH}4 [Example 15]”, in data set [1], the “Max. absorption wavelength (in acetone)” value is reported as 930 nm and the “Max. absorption wavelength (in chloroform)” value is 948 nm. Also, in data set [2], the “Solubility MEX” value is “⊚ (a value of not less than 5% by weight)” and the Solubility toluene entry was “⊚ (a value of not less than 5% by weight)”.
With “CuPc(2,5-Cl2PhO)8{2,6-(CH3)2PhO}4(PhCH2NH)4 [reference compound]”, the “Max. absorption wavelength (in acetone)” value in data set [1] amounted to 807 nm.
